Experimental data: patent publication US10617683B2, “Inhibitors of CRL4 ubiquitin ligase and uses thereof” (Cornell University, priority 2012, dated 2020)
Where a SMILES comes first, the peptide text is derived from it. The star is where a group is joined. Cbz = O=C(OCc1ccccc1)*

Test system: DDB2 degradation by CUL4A in MEF cells expressing FLAG-tagged DDB2
Test: cell-based assay for DDB2 degradation by CUL4A following UV
Set-up: species or system Mouse
Details: positive control, FIG. 2 lane 3
Source text: FIG. 2 is an image which depicts experimental data illustrating the results of a cell-based DDB2 degradation assay. The tested compounds, which are described in detail in FIGS. 7-11, included the following small molecule compounds: PZ-104 (lane 1); PZ-108 (lane 2); PZ-106 (lane 3); PZ-101 (lane 4); PZ-103 (lane 5); PZ-501 (lane 6); PZ-202 (lane 7); PZ-203 (lane 8); PZ-201 (lane 9); PZ-301 (lane 10); PZ-305 (lane 11); PZ-303 (lane 12); PZ-601 (lane 13); PZ-701 (lane 14); PZ-701 (lane 15); PZ-901 (lane 16); PZ-1001 (lane 17); PZ-1101 (lane 18); PZ-1201 (lane 19); PZ-401 (lane IV1); PZ-402 (lane IV2); and PZ-403 (IV3). MG132, a proteasome inhibitor that blocks UV-induced DDB2 degradation, was a positive control. Tubulin levels were determined by Western blotting as a loading control. […]
A cell-based assay for DDB2 degradation by CUL4A following exposure to UV light was used as a second validation assay to evaluate the hit compounds. […] Three hours post UV exposure, cells were lysed in 1×SDS buffer and protein concentrations were measured by the BCA kit. F-DDB2 levels were detected by SDS PAGE and Western blotting, and tubulin levels were used as loading control. […]

Question: How did the “UV-induced DDB2 degradation” value turn out when `CC(C)C[C@@H](C=O)NC(=O)[C@H](CC(C)C)NC(=O)[C@H](CC(C)C)NC(=O)OCc1ccccc1` [MG132] (Cbz-Leu-Leu-Leu-aldehyde) was run?
Answer: blocks
